Experiments:
CYP2D6 = target: T1, CYP2D6 (Homo sapiens, UniProt P10635); assay: CYP inhibition assay, human liver microsomes, dextromethorphan O-demethylase; type: in vitro ADME; details: pooled human liver microsomes, read-out: CYP IC50 2D6
T1 construct: 0.2 mg/ml pooled human liver microsomes; from tissue; host or cells: pooled human liver microsomes
Procedure: Inhibition of cytochromes P450 (CYPs) 2C9, 2D6 and 3A4 was assessed using human liver microsomes and CYP-selective substrate metabolism reactions. 50 μl incubations were made up containing (finally) 0.2 mg/ml pooled human liver microsomes, 5 μM substrate (diclofenac for CYP2C9 [4′hydroxylase], dextromethorphan for CYP2D6 [O-demethylase] or midazolam for CYP3A4 [1′hydroxylase]), 0.25 μL DMSO containing test inhibitor and NADPH regenerating system. Test inhibitor concentrations of 50, 16.7, 5.6, 1.9, 0.6 and 0.2 μM were assessed in singlicate. Incubations were prewarmed to 37° C. for 10 minutes before initiation by addition of NADPH regenerating system. Incubations were quenched after 5 minutes (20 minutes for dextromethorphan) by addition of 50 μl cold acetonitrile containing 20 ng/ml 4-OH-diclofenac-13C6, 20 ng/mL dextrorphan-D3 and 20 ng/mL 1-OH-midazolam-D4. Quenched incubates were stored at −20° C. for at least 1 hour before centrifugation (20,000×g, 20 minutes). Supernatants were removed and diluted 1:1 with water prior to analysis using a RapidFire sample injector system and API4000 mass spectrometer. Peak areas for substrate, metabolite and stable-labelled metabolite standard were determined using MS/MS. The peak area ratios between the metabolite generated by the enzymatic reaction and the internal standard were used in subsequent calculations. The percentage of (DMSO) control activity was calculated for each incubate and IC50 values estimated by non-linear regression. Sulfaphenazole, quinidine or ketoconazole were tested in each CYP2C9, CYP2D6 or CYP3A4 inhibition experiment, respectively, to ensure assay sensitivity and reproducibility. (Validated assays for human cytochrome P450 activities, R. L. Walsky and R. S. Obach, Drug Metabolism and Disposition 32: 647-660, 2004. and S. Fowler and H. Zhang, The AAPS Journal, Vol. 10, No. 2, 410-424, 2008.)

BACE1 = target: T2, BACE1 (Homo sapiens, UniProt P56817); assay: Cellular Aβ-lowering assay (Aβ40 ELISA, HEK293 cells expressing human APP695); type: cell-based; details: HEK293 cells stably expressing human APP695; Aβ40 in supernatant after 18-20 hrs
T2 construct: Human HEK293 cells which are stably transfected with a vector expressing a cDNA of the human APP wt gene (APP695); endogenous in cells; host or cells: HEK293 (human), stably transfected with human APP695 wt only
T2 sequence (P56817 46-501): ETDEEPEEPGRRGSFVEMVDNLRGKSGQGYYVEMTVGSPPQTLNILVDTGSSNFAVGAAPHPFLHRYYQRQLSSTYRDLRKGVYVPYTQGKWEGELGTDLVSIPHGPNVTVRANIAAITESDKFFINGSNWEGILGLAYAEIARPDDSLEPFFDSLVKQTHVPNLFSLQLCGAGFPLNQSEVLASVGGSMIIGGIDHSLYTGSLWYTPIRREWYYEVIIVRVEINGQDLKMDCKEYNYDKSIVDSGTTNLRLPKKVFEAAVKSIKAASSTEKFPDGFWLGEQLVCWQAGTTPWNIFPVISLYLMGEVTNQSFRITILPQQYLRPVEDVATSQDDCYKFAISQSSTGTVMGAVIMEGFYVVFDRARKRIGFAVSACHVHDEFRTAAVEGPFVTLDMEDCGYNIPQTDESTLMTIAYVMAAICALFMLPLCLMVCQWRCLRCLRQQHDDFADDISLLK
Procedure: Cellular Aβ-Lowering Assay:
Human HEK293 cells which are stably transfected with a vector expressing a cDNA of the human APP wt gene (APP695) were used to assess the potency of the compounds in a cellular assay. The cells were seeded in 96-well microtiter plates in cell culture medium (Iscove, plus 10% (v/v) fetal bovine serum, glutamine, penicillin/streptomycin) to about 80% confluence and the compounds were added at a 10× concentration in 1/10 volume of medium without FCS containing 8% DMSO (final concentration of DMSO was kept at 0.8% v/v). After 18-20 hrs incubation at 37° C. and 5% CO2 in a humidified incubator the culture supernatant was harvested for the determination of Aβ40 concentrations. 96well ELISA plates (e.g., Nunc MaxiSorb) were coated with monoclonal antibody which specifically recognize the C-terminal end of Aβ40 (Brockhaus et al., NeuroReport 9, 1481-1486; 1998). After blocking of non-specific binding sites with e.g. 1% BSA and washing, the culture supernatants were added in suitable dilutions together with a horseradish peroxidase-coupled Aβ detection antibody (e.g., antibody 4G8, Senetek, Maryland Heights, Mo.) and incubated for 5 to 7 hrs. Subsequently the wells of the microtiter plate were washed extensively with Tris-buffered saline containing 0.05% Tween 20 and the assay was developed with tetramethylbenzidine/H2O2 in citric acid buffer. After stopping the reaction with one volume 1 N H2SO4 the reaction was measured in an ELISA reader at 450 nm wavelength. The concentrations of Aβ in the culture supernatants were calculated from a standard curve obtained with known amounts of pure Aβ peptide.

P-gp (human MDR1) = target: T3, P-gp (human MDR1) (Homo sapiens, UniProt P08183); assay: p-gp (P-glycoprotein) assay, bidirectional transcellular transport in LLC-PK1 and L-MDR1 cells; type: in vitro ADME; details: presumably transport efflux ratio (ER)
T3 construct: host or cells: LLC-PK1 (porcine kidney epithelial cell line)
T3 sequence (P08183 whole entry): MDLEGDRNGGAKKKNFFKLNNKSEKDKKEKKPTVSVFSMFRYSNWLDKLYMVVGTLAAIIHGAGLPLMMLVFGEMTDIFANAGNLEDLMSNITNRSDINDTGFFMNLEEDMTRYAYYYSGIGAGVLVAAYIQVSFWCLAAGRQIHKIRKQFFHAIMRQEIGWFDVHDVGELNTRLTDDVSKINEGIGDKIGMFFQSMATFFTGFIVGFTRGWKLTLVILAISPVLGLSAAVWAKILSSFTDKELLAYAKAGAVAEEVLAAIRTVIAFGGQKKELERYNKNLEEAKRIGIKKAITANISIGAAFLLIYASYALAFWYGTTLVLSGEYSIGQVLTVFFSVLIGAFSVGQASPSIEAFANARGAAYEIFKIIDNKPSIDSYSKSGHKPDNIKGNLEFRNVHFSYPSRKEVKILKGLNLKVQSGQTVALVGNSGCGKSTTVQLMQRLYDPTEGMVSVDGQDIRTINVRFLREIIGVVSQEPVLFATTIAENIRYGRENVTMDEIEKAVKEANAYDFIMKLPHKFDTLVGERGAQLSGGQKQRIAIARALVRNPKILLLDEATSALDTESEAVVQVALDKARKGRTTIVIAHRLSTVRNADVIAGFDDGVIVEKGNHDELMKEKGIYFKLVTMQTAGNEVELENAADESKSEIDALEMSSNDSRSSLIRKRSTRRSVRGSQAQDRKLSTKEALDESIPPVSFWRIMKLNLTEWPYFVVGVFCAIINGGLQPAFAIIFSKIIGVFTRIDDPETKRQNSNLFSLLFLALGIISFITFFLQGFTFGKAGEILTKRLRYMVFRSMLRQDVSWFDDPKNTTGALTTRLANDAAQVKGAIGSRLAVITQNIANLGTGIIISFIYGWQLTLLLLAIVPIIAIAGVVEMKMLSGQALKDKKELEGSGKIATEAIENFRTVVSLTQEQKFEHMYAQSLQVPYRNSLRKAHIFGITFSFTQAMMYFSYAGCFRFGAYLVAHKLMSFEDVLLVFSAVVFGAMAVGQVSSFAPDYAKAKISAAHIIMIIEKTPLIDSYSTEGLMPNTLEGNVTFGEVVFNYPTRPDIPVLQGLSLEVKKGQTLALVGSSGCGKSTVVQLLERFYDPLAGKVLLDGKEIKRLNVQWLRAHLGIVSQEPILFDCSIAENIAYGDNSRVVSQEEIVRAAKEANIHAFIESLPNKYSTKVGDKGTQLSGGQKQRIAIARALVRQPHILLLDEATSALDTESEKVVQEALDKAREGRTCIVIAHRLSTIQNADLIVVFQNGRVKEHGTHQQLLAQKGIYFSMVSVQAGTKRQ
Procedure: p-gp (P-glycoprotein) Assay
Cell Lines and Vesicles Used for Transport Experiments
The LLC-PK1 cell line (ATCC #CL-101) is a porcine kidney epithelial cell line. The MDR1 (Human multidrug resistance protein 1) transfected cell lines were obtained from Dr. A. Schinkel, The Netherlands Cancer Institute (Amsterdam, The Netherlands). All cell lines were cultured on permeable inserts (Costar, 0.33 cm^2 area, pore size 3.0 μm, low density) at 4.5·10^5 cells/cm^2. Transport measurements were performed at day 4 after seeding. Tightness of the cell monolayer was controlled via the permeability of the extracellular marker lucifer yellow (10 μM). […]
The method used for transport experiments was reported Schwab et al. (see above.). […] Concentrations of substrate in both compartments were determined by scintillation counting (digoxin) or by LC-MS/MS. The extracellular marker (lucifer yellow) was quantified using a spectrafluor plus reader at 430/535 nm (Ex/Em). In each experiment 3 different inserts were used for each condition and a mean was calculated. […]
[formula] where Papp, A, C0, and dQ/dt represent the apparent permeability, the filter surface area, the initial concentration, and the amount transported per time period, respectively. Papp values were calculated on the basis of a single time point (2 h). Transport efflux ratios (ER) were calculated as follows: […]

T1 sequence (P10635 whole entry): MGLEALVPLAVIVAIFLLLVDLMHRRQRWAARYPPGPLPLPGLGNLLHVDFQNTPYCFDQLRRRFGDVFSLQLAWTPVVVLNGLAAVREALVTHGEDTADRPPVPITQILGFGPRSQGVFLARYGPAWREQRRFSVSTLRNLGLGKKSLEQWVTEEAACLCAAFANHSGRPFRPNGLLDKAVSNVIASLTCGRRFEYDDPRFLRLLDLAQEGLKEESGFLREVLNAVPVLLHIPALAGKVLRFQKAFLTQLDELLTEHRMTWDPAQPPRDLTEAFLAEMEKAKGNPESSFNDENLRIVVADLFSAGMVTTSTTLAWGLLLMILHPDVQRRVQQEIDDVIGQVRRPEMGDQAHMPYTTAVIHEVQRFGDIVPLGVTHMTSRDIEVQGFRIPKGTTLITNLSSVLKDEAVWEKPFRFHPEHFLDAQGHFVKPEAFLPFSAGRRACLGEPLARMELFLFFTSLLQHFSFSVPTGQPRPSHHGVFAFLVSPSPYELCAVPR

## CC1(c2cccc(-c3cc(Cl)cc(Cl)c3)c2)COCC(N)=N1 (stereo not drawn) [Example 32, 5-(3′,5′-Dichloro-biphenyl-3-yl)-5-methyl-5,6-dihydro-2H-[1,4]oxazin-3-ylamine]
CYP2D6
  IC50: > 50000 nM
BACE1
  IC50: 1530 nM
P-gp (human MDR1)
  efflux ratio at 2 h: 1.1

## CC1(c2cc(-c3cncnc3)ccc2F)COCC(N)=N1 (stereo not drawn) [Example 36, 5-(2-Fluoro-5-pyrimidin-5-yl-phenyl)-5-methyl-5,6-dihydro-2H-[1,4]oxazin-3-ylamine]
CYP2D6
  IC50: 41000 nM
BACE1
  IC50: 980 nM
P-gp (human MDR1)
  efflux ratio at 2 h: 11
